Patent US11851391B2, “Antifungal compounds and methods of forming the same” (University of Kentucky Research Foundation, priority 2018, dated 2023)
Values after ≈ are worked out from the molar mass of the structure shown. “Also recorded” adds a separate entry of the source. Read-outs that look alike come from different tables or passages of the source.

What was measured:
[1] = tested on: various yeast strains and filamentous fungi (strains A-M); experiment: Antifungal activity over the whole panel (summary of MIC data); type: cell-based, Candida and Aspergillus strains; details: over the fungal strains tested, based on MIC data of Table 1
Procedure: (§1) The activity of N,N′-diaryl-bishydrazones 7-22 was tested against a panel of seven strains of C. albicans: ATCC 10231(R) (A), ATCC 64124(R) (B), ATCC MYA-2876(S) (C), ATCC 90819(R) (D), ATCC MYA-2310(S) (E), ATCC MYA-1237(R) (F), and ATCC MYA-1003(R) (G). The activity of these bishydrazones 7-22 was also explored against a panel of three non-albicans Candida strains: C. glabrata ATCC 2001 (H), C. krusei ATCC 6258 (I), and C. parapsilosis ATCC 22019 (J). Finally, the activity of these bishydrazones 7-22 was explored against three Aspergillus strains: A. flavus ATCC MYA-3631 (K), A. nidulans ATCC 38163 (L), and A. terreus ATCC MYA-3633 (M).
(§2) The MIC values of compounds 7a-24c against yeast cells (strains A-J) were determined in 96-well plates as described in the CLSI document M27-A3 with minor modifications. A single colony of freshly prepared yeast cells was used to inoculate 5 mL of yeast extract peptone dextrose (YPD) broth prior to incubation overnight with shaking at 200 rpm at 35° C. From the actively growing yeast culture, 100 μL were then transferred to 900 μL of sterile ddH2O and re-adjusted to achieve OD600 of 0.12 (˜1×10^6 CFU/mL). The cell suspension was further diluted to achieve 2-4×10^3 CFU/mL in RPMI 1640 medium. […] The final concentration of DMSO was ensured to be <1.25% in all experiments. The MIC values for compounds 7a-24c and CAS were defined as the minimum drug concentration that yielded complete inhibition (also known as MIC-0).
(§3) Similarly, the MIC values of compounds 7a-24c, as well as that of the two control drugs against filamentous fungi (strains K-M) were determined as previously described in CLSI document M38-A2. Spores were harvested from sporulating cultures growing on potato dextrose agar (PDA) by filtration through sterile glass wool and enumerated by using a hemocytometer to obtain the desired inoculum size. […] Spore suspensions were added to the wells to afford a final concentration of 5×10^5 CFU/mL. The plates were incubated at 35° C. for 48 h. The MIC values of compounds 7a-24c and CAS against filamentous fungi were based on the complete inhibition of growth when compared to the growth control (MIC-0). […] Each test was performed in triplicate.

[2] = tested on: C. albicans ATCC MYA-2310(S) (strain E); experiment: MIC determination, in vitro antifungal assay (CLSI M27-A3); type: cell-based, Candida albicans; details: Candida albicans, 48 h, MIC-0, 48 h at 35° C., read-out: MIC
Procedure: as §1
(§4) Candida albicans ATCC 10231 (A), C. albicans ATCC 64124 (B), and C. albicans ATCC MYA-2876 (C) were kindly provided by Dr. Jon Y. Takemoto (Utah State University, Logan, UT, USA). C. albicans ATCC 90819 (D), C. albicans ATCC MYA-2310 (E), C. albicans ATCC MYA-1237 (F), C. albicans ATCC MYA-1003 (G), Candida glabrata ATCC 2001 (H), Candida krusei ATCC 6258 (I), Candida parapsilosis ATCC 22019 (J), Aspergillus flavus ATCC MYA-3631 (K), and Aspergillus terreus ATCC MYA-3633 (M) were obtained from the American Type Culture Collection (ATCC; Manassas, VA, USA). Aspergillus nidulans ATCC 38163 (L) was received from Dr. Jon S. Thorson (University of Kentucky, Lexington, KY, USA). Filamentous fungi and yeasts were cultivated at 35° C. in RPMI 1640 medium (with 1-glutamine, without sodium biocarbonate, Sigma-Aldrich, St. Louis, MO) buffered to a pH of 7.0 with 0.165 M morpholinepropanesulfonic acid (MOPS) buffer (Sigma-Aldrich).
as §2

[3] = tested on: C. albicans ATCC 90819(R) (strain D); experiment: as above; type: cell-based, Candida albicans; details: Candida albicans, ATCC90819, 48 h, MIC-0, 48 h at 35° C., read-out: MIC
Procedure: as §1, §4, §2

[4] = tested on: C. albicans ATCC MYA-1237(R) (strain F); experiment: as above; type: cell-based, Candida albicans; details: Candida albicans, 48 h, MIC-0, 48 h at 35° C., read-out: MIC
Procedure: as §1, §4, §2

[5] = tested on: C. albicans ATCC 64124(R) (strain B); experiment: as above; type: cell-based, Candida albicans; details: Candida albicans, ATCC64124, 48 h, strain B; MIC-0; 48 h at 35° C.; read-out: MIC
Procedure: as §1, §4, §2

[6] = tested on: Aspergillus flavus ATCC MYA-3631 (strain K); experiment: MIC determination against filamentous fungi (CLSI M38-A2); type: cell-based; details: MIC-0, 48 h at 35° C.
Procedure: as §1, §4, §3

[7] = tested on: Aspergillus terreus ATCC MYA-3633 (strain M); experiment: as above; type: cell-based; details: Aspergillus terreus, 48 h, MIC-0, 48 h at 35° C., read-out: MIC
Procedure: as §1, §4, §3

[8] = tested on: Aspergillus nidulans ATCC 38163 (strain L); experiment: as above; type: cell-based; details: MIC-0, 48 h at 35° C.
Procedure: as §1, §4, §3

[9] = tested on: Candida glabrata ATCC 2001 (strain H); experiment: MIC determination, in vitro antifungal assay (CLSI M27-A3); type: cell-based; details: Nakaseomyces glabratus, ATCC2001, 48 h, MIC-0, 48 h at 35° C., read-out: MIC
Procedure: as §1, §4
(§5) A single colony of freshly prepared yeast cells was used to inoculate 5 mL of yeast extract peptone dextrose (YPD) broth prior to incubation overnight with shaking at 200 rpm at 35° C. From the actively growing yeast culture, 100 μL were then transferred to 900 μL of sterile ddH2O and re-adjusted to achieve OD600 of 0.12 (˜1×10^6 CFU/mL). The cell suspension was further diluted to achieve 2-4×10^3 CFU/mL in RPMI 1640 medium. […] The final concentration of DMSO was ensured to be <1.25% in all experiments.

[10] = tested on: Candida krusei ATCC 6258 (strain I); experiment: as above; type: cell-based; details: MIC-0, 48 h at 35° C.
Procedure: as §1, §4, §5

[11] = tested on: C. albicans ATCC MYA-1003(R) (strain G); experiment: as above; type: cell-based, Candida albicans; details: MIC-0, 48 h at 35° C.
Procedure: as §1, §4, §5

[12] = tested on: C. albicans ATCC MYA-2876(S) (strain C); experiment: as above; type: cell-based, Candida albicans; details: Candida albicans, 48 h, MIC-0, 48 h at 35° C., read-out: MIC
Procedure: as §1, §4, §5

[13] = tested on: Candida parapsilosis ATCC 22019 (strain J); experiment: as above; type: cell-based; details: strain J, MIC-0, 48 h at 35° C.
Procedure: as §1, §4, §2

[14] = tested on: Candida albicans ATCC 10231(R) (strain A); experiment: as above; type: cell-based; details: MIC-0 (no visible growth), 48 h at 35° C.
Procedure: as §1, §4, §2

[15] = tested on: murine red blood cells (mRBCs); details: for Percentage of hemolysis (±SDEV): mouse, 60 min
Procedure: Thus, the hemolytic activity for these bishydrazones was investigated against murine red blood cells (mRBCs).
Murine red blood cells (mRBCs) were prepared by suspending 1 mL of murine blood in 3 mL of PBS prior to centrifugation at 1,000 rpm for 5 min. The mRBCs were washed four times in PBS and resuspended in the same buffer to a final concentration of 10^7 mRBC/mL. […] The tubes were incubated at 37° C. for 60 min. […] Eppendorf tubes containing 200 μL of ddH2O and 2 μL of 1% v/v Triton™ X-100 served as negative (blank) and positive controls, respectively. The percentage of hemolysis was calculated using the following equation: % hemolysis=[(absorbance of sample)−(absorbance of blank)]×100/(absorbance of positive control).

[16] = Aspergillus flavus, 48 h, read-out: MIC
[17] = Aspergillus nidulans, ATCC38163, 48 h, read-out: MIC
[18] = Pichia kudriavzevii, ATCC6258, 48 h, read-out: MIC
[19] = Candida albicans, 48 h, read-out: MIC
[20] = Lodderomyces parapsilosis, ATCC22019, 48 h, read-out: MIC
[21] = Candida albicans, ATCC10231, 48 h, read-out: MIC

SMILES	MIC [2] [mg/L]	MIC [3] [mg/L]	MIC [4] [mg/L]	MIC [5] [mg/L]	MIC [6, 16] [mg/L]	MIC [7] [mg/L]	MIC [8, 17] [mg/L]	MIC [9] [mg/L]	MIC [10, 18] [mg/L]	MIC [11, 19] [mg/L]	MIC [12] [mg/L]	MIC [13, 20] [mg/L]	MIC [14, 21] [mg/L]	antifungal activity (in words) [1]	hemolytic activity (in words) [15]	Percentage of hemolysis (±SDEV) ([15]; 0.975 μg/mL) [%]	Percentage of hemolysis (±SDEV) ([15]; 1.95 μg/mL) [%]	Percentage of hemolysis (±SDEV) ([15]; 3.9 μg/mL) [%]	Percentage of hemolysis (±SDEV) ([15]; 7.8 μg/mL) [%]	Percentage of hemolysis (±SDEV) ([15]; 15.6 μg/mL) [%]	also measured
Brc1ccc(N/N=C/c2ccc(-c3ccc(/C=N/Nc4ccc(Br)cc4)cc3)cc2)cc1 [Compound 19b]	> 31.3	> 31.3	> 31.3	> 31.3	> 31.3	> 31.3	> 31.3	> 31.3	> 31.3	> 31.3	> 31.3	31.3 (≈ 57.1 µM)	> 31.3	inactive							
C(=N\Nc1ccccc1)/c1ccc(-c2ccc(/C=N/Nc3ccccc3)cc2)cc1 [Compound 7b]	> 31.3	31.3 (≈ 80.2 µM)	> 31.3	> 31.3	1.95 to 3.9 (≈ 4.99 to 9.99 µM)	15.6 (≈ 39.9 µM)	1.95 to 3.9 (≈ 4.99 to 9.99 µM)	> 31.3	> 31.3	> 31.3	> 31.3	> 31.3	7.8 (≈ 20 µM)		lack of hemolytic activity	0.1 ± 0.1	3.7 ± 1.6	3.4 ± 1.7	2.9 ± 1.1	14.1 ± 6.0	MIC [6]: 3.9 mg/L (≈ 9.99 µM); MIC [8]: 1.95 mg/L (≈ 4.99 µM); Percentage of hemolysis (±SDEV) ([15]; 31.3 μg/mL): 10.8 ± 0.6%
CC(C)Oc1ccc(N/N=C/c2ccc(-c3ccc(/C=N/Nc4ccc(OC(C)C)cc4)cc3)cc2)cc1 [Compound 16b]	> 31.3	> 31.3	> 31.3	> 31.3	> 31.3	> 31.3	> 31.3	> 31.3	> 31.3	> 31.3	> 31.3	> 31.3	> 31.3	inactive							
Fc1cccc(N/N=C/c2ccc(-c3ccc(/C=N/Nc4cccc(F)c4)cc3)cc2)c1 [Compound 12b]	> 31.3	> 31.3	> 31.3	> 31.3	31.3 (≈ 73.4 µM)	> 31.3	> 31.3	> 31.3	7.8 to 15.6 (≈ 18.3 to 36.6 µM)	> 31.3	> 31.3	3.9 (≈ 9.14 µM)	7.8 to 15.6 (≈ 18.3 to 36.6 µM)		lack of hemolytic activity	0.8 ± 0.9	0	3.2 ± 3.0	2.6 ± 1.6	7.7 ± 3.1	MIC [10]: 15.6 mg/L (≈ 36.6 µM); Percentage of hemolysis (±SDEV) ([15]; 31.3 μg/mL): 10.3 ± 0.2%; MIC [13]: 3.9 mg/L (≈ 9.14 µM); MIC [14]: 7.8 mg/L (≈ 18.3 µM)

Further molecules by falling MIC [2], results first:

MIC [2] [mg/L]	MIC [3] [mg/L]	MIC [4] [mg/L]	MIC [5] [mg/L]	MIC [6, 16] [mg/L]	MIC [7] [mg/L]	MIC [8, 17] [mg/L]	MIC [9] [mg/L]	MIC [10, 18] [mg/L]	MIC [11, 19] [mg/L]	MIC [12] [mg/L]	MIC [13, 20] [mg/L]	MIC [14, 21] [mg/L]	SMILES	antifungal activity (in words) [1]	hemolytic activity (in words) [15]	Percentage of hemolysis (±SDEV) ([15]; 0.975 μg/mL) [%]	Percentage of hemolysis (±SDEV) ([15]; 1.95 μg/mL) [%]	Percentage of hemolysis (±SDEV) ([15]; 3.9 μg/mL) [%]	Percentage of hemolysis (±SDEV) ([15]; 7.8 μg/mL) [%]	Percentage of hemolysis (±SDEV) ([15]; 15.6 μg/mL) [%]	also measured
31.3 (≈ 68.1 µM)	15.6 (≈ 34 µM)	15.6 (≈ 34 µM)	7.8 (≈ 17 µM)	> 31.3	> 31.3	> 31.3	15.6 (≈ 34 µM)	31.3 (≈ 68.1 µM)	1.95 to 3.9 (≈ 4.24 to 8.49 µM)	15.6 (≈ 34 µM)	1.95 to 3.9 (≈ 4.24 to 8.49 µM)	7.8 (≈ 17 µM)	Clc1ccc(N/N=C/c2ccc(-c3cccc(/C=N/Nc4ccc(Cl)cc4)c3)cc2)cc1 [Compound 18a]	overall antifungal activity against all the strains tested; also recorded: good activity against the majority of the fungal strains tested; also recorded: excellent activity only against yeast strains							MIC [11]: 3.9 mg/L (≈ 8.49 µM); MIC [13]: 3.9 mg/L (≈ 8.49 µM)
3.9 (≈ 12.1 µM)	> 31.3	7.8 (≈ 24.2 µM)	3.9 (≈ 12.1 µM)	> 31.3	7.8 (≈ 24.2 µM)	7.8 (≈ 24.2 µM)	3.9 (≈ 12.1 µM)	1.95 (≈ 6.05 µM)	> 31.3	3.9 (≈ 12.1 µM)	1.95 (≈ 6.05 µM)	1.95 to 3.9 (≈ 6.05 to 12.1 µM)	N=C(N)N/N=C/c1ccc(-c2cccc(/C=N/NC(=N)N)c2)cc1 [Compound 24a]		lack of hemolytic activity	0	1.1 ± 2.2	1.2 ± 1.7	2.3 ± 0.5	3.8 ± 0.5	Percentage of hemolysis (±SDEV) ([15]; 31.3 μg/mL): 3.8 ± 1.7%
